Laboratory results: US12157869B2, “Methods and compositions for reducing persistent odor in clothing and mitigating biofilms on various materials” (priority 2019, dated 2024)
Structures can show the parent of a compound that is named as a salt.

Legend:
[1] = test system: biofilm matter in clothing; assay: UV light visualization of fluorescence of suspected biofilm matter in clothing (optical brightener / Calcofluor White)
Description: Three UV lamps were used in testing fluorescence in potential biofilms. These included a Lightfe® UV301D lamp providing a beam at 365 nm, a UVBeast V3 lamp operating at 395 nm, and a UV Nova 108-LED UV lamp operating at 395 nm.
In one approach, biofilm candidates were stained using Calcofluor White M2R dye, a fluorescent brightener purchased from Phyto Technology Laboratories (Shawnee Mission, Kansas), CAS No. 4404-43-7. A solution was prepared of 0.074% Calcofluor white in water, and given the name CF1.
In examining fluorescence, it was eventually noted that both an SLR camera and an iPhone camera could not easily capture the fine details of fluorescence when using any of the UV lamps available for this study, probably because the fluorescence, including some background fluorescence, may have interfered with the camera's visible light operations. […] A rubber band was sufficient for holding it in place.

[2] = test system: persistent odor (perma-odor) in clothing; assay: Odor evaluation of treated clothing by smelling (odor level on a scale of 0 to 5)
[3] = test system: darkened regions believed to be biofilm remnants in clothing; assay: Visible-light inspection of darkened or yellow regions in clothing; conditions: shirt CH1; left pit 6 g 2.1% NAC then 1.95 g E3; right pit 2.1 g E3 without NAC; about 20 min, short cycle 30°C Purex
From the text: FIG. 10A depicts the left pit of shirt CH1 in visible light after the treatments described previously (as well as the treatment with optical brighter). A dark region 202 is still present that appears to come from within the fabric rather than resting on its surface. It is believed to come from biofilm material such as polysaccharides, proteins, and genetic material, that is capable of adhering to optical brighteners such as CF1 solution. FIG. 10B depicts the same region in UV light using the UVBeast V3 lamp. The dark region 202 of FIG. 10A is now a fluorescent region 204 with the appearance of a purple color, believed to result from Calcofluor White fluorescence couple with the dark matter's blocking of the fluorescence of the shirt material itself. […] The fluorescence in CH1 was bright enough to be detected even with the orange dye of the shirt brightly fluorescing at the same time.

CC(=O)N[C@@H](CS)C(=O)O [NAC, N-acetyl cysteine]
fluorescent zones after wash ([1]; shirt BD1, right pit 2.1% NAC (pH 4) then E3C): slightly decreased in intensity
intensity of fluorescent zones after wash ([1]; shirt BD1, right pit 5.2 g 2.1% NAC pH 6.4 then 3.0 g E3D, left pit water then 3.28 g E3D, about 33°C 2 hours, full cycle 40°C Tide): may have decreased slightly
fluorescence after CF1 staining, left pit ([1]; shirt CH1, 2.1% NAC then E3, wash, Lightfe UV301D 365 nm): perhaps weaker than initially seen
fluorescence after wash ([1]; shirt RA1, left pit 4.54 g 2.1% NAC then 10.7 g E3D, right pit 9.2 g E3D only, about 33°C 2 hours, short cycle 30°C Purex): significant reduction in fluorescence
residual fluorescence, lower versus upper half of left pit ([1]; shirt RA1, lower half 2.15% NAC (pH 6.4 and 9.17), upper half water, both CellulaseC 5.6 g and AmylaseA 1.94 g, about 28°C 30 min): declined more strongly
odor after one work day, shirt AA left pit ([2]; 2.1% NAC and NIC, wash): remained smelling fresh
odor after one work day, shirt AA right pit ([2]; 2.1% NAC, NIC and 2 g E2, wash): smell again
owner's report after wash and exercise, shirt WL ([2]; left pit 4.8 g 2% NAC (pH 7.8), 2 min, 6.5 g NIC, 10 min, 5 g NIC, liquid Tide): substantial improvement
odor after heavy exercise, shirt RL ([2]; right pit 2% NAC pH 7.8 then NIC, left pit NIC only, washed): strong odor
odor level after washing and exercise, shirt BL right pit ([2]; right pit 2.1% NAC, EGCD-2, left pit about 2, scale of 0 to 5): ~1
odor after washing and exercise, shirt WL ([2]; right pit 2.1% NAC, EGCD-B, NIC): very little odor
odor level after washing and exercise, shirt RL ([2]; right pit 2.1% NAC, EGCD-B, NIC, both pits about the same, scale of 0 to 5): about 2
odor following exercise, shirt AB ([2]; right pit 8.2 g 2.1% NAC, 3.3 g NIC, 5.4 g LPS1, wash): smell better in general
residual odor after wash, shirt RL ([2]; right pit 9.1 g 2% NAC pH 7.8, 11 min, 5.8 g NIC, left pit 10 g NIC only): appeared to have been eliminated
odor level after washing and drying ([2]; shirt BD1 right pit, 5.2 g 2.1% NAC (pH 4) then 2.9 g E3C, Purex, about 3 before, untreated left pit about 1, scale of 1 to 5): 0
odor after handwash and air drying ([2]; shirt CH1, right pit 3.2% NAC solution (2 g outside and inside), 2 min, then NIC 4.83 g, left pit NIC only 7.4 g, 5 min): smelled better than the left
odor intensity after exercise and 48 hours storage at room temperature ([2]; shirt CH1, right pit second treatment: 8 ml NAC solution (600 mg effervescent tablet in 100 ml) then 5.3 ml EGCD-A, 20 min, left pit earlier NIC only, 0 to 5 scale): 2 to 3
odor rating after further exercise, left pit ([2]; shirt CH1 left pit, 10 g 2% NAC solution 10 min, 9 g NIC 15 min, rinse, wash (Bright Blue Moon), scale 0 to 5): 2 to 3
odor after exercise relative to left pit ([2]; shirt CH1 right pit, 2% NAC solution, washed, odor level about 5 before): significantly reduced
odor level after washing ([2]; shirt CH1 right pit, 2.4 g pH 3.0 NAC solution, 5 min, short cycle with Bright Blue Moon, scale of 0 to 5): about 0.5
odor after handwash and drying ([2]; shirt CH1 right pit, 21 g 2% NAC solution, 5.94 g EGCD-A, 10 min, 7 g NIC, about 10 min): no odor
odor rating after further exercise, right pit ([2]; shirt CH1 right pit, earlier NAC, EGCD-A and NIC treatments, scale 0 to 5): about 1
odor after washing and air drying ([2]; shirt Dec1 right pit, 1.6 g of 1.8% NAC solution (pH about 2), then standard wash with Bright Blue Moon enzymatic detergent): some odor
odor of treated pits after wash ([2]; shirts AA, AB, AC, 2.1% NAC solution, about 10 min, then NIC (some pits also E2 or LPS1), 15 min, wash with Bright Blue Moon, versus untreated pits or pits without NAC): smelled better than before
odor after washing ([2]; shirts RL, BL, WL right pits, 2.1% NAC solution 12-13.5 g, then EGCD-B or EGCD-2, then NIC (RL, WL), owner's report): significantly reduced odor
darkened regions after wash [3]: perhaps slightly lighter

O=C(O)CC(O)(CC(=O)O)C(=O)O [sodium citrate]
fluorescence of previously treated pits ([1]; shirt RA1, 12% sodium citrate solution 7 g then 1.72 g E3D, about 30°C 3 hours, Lemon Brite): only very slight improvement at best
reddish fluorescent zone ([1]; shirt RA1, 12% sodium citrate solution then E3D): significant reduction
fluorescence of previously untreated spot ([1]; shirt RA1, 12% sodium citrate solution then E3D, about 30°C 3 hours, also slightly smaller in extent): significantly reduced in brightness
fluorescence of two zones of right pit ([1]; shirt RA1, each about 2.3 g 12% citrate solution, lower zone also 1.86 g E3D, 40-45°C two hours): only little reduction in fluorescence
